Columns and labels:
Test in all cases: combination Emax (second highest fraction inhibited in the dose matrix, 72 h); higher = more inhibition; extreme values may be limits of the assay
[1] = system: SU8686 (Pancreatic Carcinoma)
Procedure, shortened: (§1)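 Cell lines in DMEM/F12 or RPMI with 10% FBS were plated in 1536-well plates, held 24 hours at 37°C, 5% CO2, then given two-drug dose matrices for 72 hours (DMSO typically 0.2%). Viability was read by CellTiter-Glo 2.0 luminescence and scaled as inhibition from 0 (vehicle wells) to 1 (blank wells). Combination Emax is the second-highest inhibition in the matrix; Bliss excess is observed combination effect minus expected EA + EB − EA·EB, EA and EB being single-agent effects.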

[2] = system: OVCAR-4 (Ovarian Carcinoma)
Procedure, shortened: as §1

[3] = system: HGC-27 (Gastric Carcinoma)
Procedure, shortened: as §1

[4] = system: VA-ES-BJ (Other Solid Carcinomas)
Procedure, shortened: as §1

SMILES	combination Emax [1]	combination Emax [2]	combination Emax [3]	combination Emax [4]
Cc1cc2ncnn2cc1Nc1ncc2c(n1)n(C1CCOCC1)c(=O)n2C [AZD7648] + O=C(c1cc(Cc2n[nH]c(=O)c3ccccc23)ccc1F)N1CCN(C(=O)C2CC2)CC1 [Olaparib] (first compound max 10 µM, 7x7, partner max 10 µM)	0.0508	0.133	0.629	0.18
CN(CCO)CC[C@H](CSc1ccccc1)Nc1ccc(S(=O)(=O)NC(=O)c2ccc(N3CCC([C@@H](O)c4ccccc4-c4ccc(Cl)cc4)CC3)cc2)cc1S(=O)(=O)C(F)(F)F [AZD4320] + CCN(CCO)CCCOc1ccc2c(Nc3cc(CC(=O)Nc4cccc(F)c4)[nH]n3)ncnc2c1 [AZD2811] (first compound max 1 µM, 7x7, partner max 1 µM)	0.155	0.389	0.96	0.291
CN(CCO)CC[C@H](CSc1ccccc1)Nc1ccc(S(=O)(=O)NC(=O)c2ccc(N3CCC([C@@H](O)c4ccccc4-c4ccc(Cl)cc4)CC3)cc2)cc1S(=O)(=O)C(F)(F)F [AZD4320] + C1CN(CCC1(C(=O)N[C@@H](CCO)C2=CC=C(C=C2)Cl)N)C3=NC=NC4=C3C=CN4 [Capivasertib] (first compound max 1 µM, 7x7, partner max 3 µM)	0.0053	0.0826	0.775	0.224
Cc1nc(Nc2ncc(C(=O)Nc3c(C)cccc3Cl)s2)cc(N2CCN(CCO)CC2)n1 [Dasatinib] + CC(=O)Nc1cccc(-n2c(=O)n(C3CC3)c(=O)c3c(Nc4ccc(I)cc4F)n(C)c(=O)c(C)c32)c1 [Trametinib] (first compound max 2 µM, 7x7, partner max 1 µM)	0.388	0.62	0.726	0.441
CN(CCO)CC[C@H](CSc1ccccc1)Nc1ccc(S(=O)(=O)NC(=O)c2ccc(N3CCC([C@@H](O)c4ccccc4-c4ccc(Cl)cc4)CC3)cc2)cc1S(=O)(=O)C(F)(F)F [AZD4320] + Cn1cnc2c(F)c(Nc3ccc(Br)cc3Cl)c(C(=O)NOCCO)cc21 [Selumetinib] (first compound max 1 µM, 7x7, partner max 3 µM)	0.228	0.381	0.381	0.203
Cc1cc2ncnn2cc1Nc1ncc2c(n1)n(C1CCOCC1)c(=O)n2C [AZD7648] + CN(C)CCCOc1ccc(-c2ccc3ncc4c(c3c2)n(C2CCOCC2)c(=O)n4C)cn1 [AZD0156] (first compound max 10 µM, 7x7, partner max 1 µM)	0.143	0.185	0.611	0.225
CN(CCO)CC[C@H](CSc1ccccc1)Nc1ccc(S(=O)(=O)NC(=O)c2ccc(N3CCC([C@@H](O)c4ccccc4-c4ccc(Cl)cc4)CC3)cc2)cc1S(=O)(=O)C(F)(F)F [AZD4320] + Cc1cc2ncnn2cc1Nc1ncc2c(n1)n(C1CCOCC1)c(=O)n2C [AZD7648] (first compound max 1 µM, 7x7, partner max 10 µM)	0.0978	0.127	0.473	0.174
Cc1cc2ncnn2cc1Nc1ncc2c(n1)n(C1CCOCC1)c(=O)n2C [AZD7648] + C=CCn1c(=O)c2cnc(Nc3ccc(N4CCN(C)CC4)cc3)nc2n1-c1cccc(C(C)(C)O)n1 [AZD1775] (first compound max 10 µM, partner max 1 µM)	0.224	0.607	0.771	0.453
C[C@@H](c1ccc2nccn2c1)n1nnc2ncc(-c3cnn(C)c3)nc21 [Savolitinib] + CC1(C)CCC(CN2CCN(c3ccc(C(=O)NS(=O)(=O)c4ccc(NCC5CCOCC5)c([N+](=O)[O-])c4)c(Oc4cnc5[nH]ccc5c4)c3)CC2)=C(c2ccc(Cl)cc2)C1 [Venetoclax] (first compound max 1 µM, 7x7, partner max 1 µM)	0.0716	0.0979	0.147	0.152
Cc1cc2ncnn2cc1Nc1ncc2c(n1)n(C1CCOCC1)c(=O)n2C [AZD7648] + CCN(CCO)CCCOc1ccc2c(Nc3cc(CC(=O)Nc4cccc(F)c4)[nH]n3)ncnc2c1 [AZD2811] (first compound max 10 µM, 7x7, partner max 1 µM)	0.139	0.285	0.856	0.346
CN(CCO)CC[C@H](CSc1ccccc1)Nc1ccc(S(=O)(=O)NC(=O)c2ccc(N3CCC([C@@H](O)c4ccccc4-c4ccc(Cl)cc4)CC3)cc2)cc1S(=O)(=O)C(F)(F)F [AZD4320] + C[C@@H]1COCCN1C2=NC(=NC(=C2)C3(CC3)[S@](=N)(=O)C)C4=C5C=CNC5=NC=C4 [AZD6738] (first compound max 1 µM, 7x7, partner max 10 µM)	0.205	0.794	0.812	0.863
CN(CCO)CC[C@H](CSc1ccccc1)Nc1ccc(S(=O)(=O)NC(=O)c2ccc(N3CCC([C@@H](O)c4ccccc4-c4ccc(Cl)cc4)CC3)cc2)cc1S(=O)(=O)C(F)(F)F [AZD4320] + C=CCn1c(=O)c2cnc(Nc3ccc(N4CCN(C)CC4)cc3)nc2n1-c1cccc(C(C)(C)O)n1 [AZD1775] (first compound max 1 µM, partner max 1 µM)	0.238	0.662	0.543	0.458
CN(CCO)CC[C@H](CSc1ccccc1)Nc1ccc(S(=O)(=O)NC(=O)c2ccc(N3CCC([C@@H](O)c4ccccc4-c4ccc(Cl)cc4)CC3)cc2)cc1S(=O)(=O)C(F)(F)F [AZD4320] + C[C@@H](Nc1cc(F)cc(F)c1)c1cc(C(=O)N(C)C)cc2c(=O)cc(N3CCOCC3)oc12 [AZD8186] (first compound max 1 µM, 7x7, partner max 3 µM)	0.216	0.322	0.64	0.296
C[C@@H](c1ccc2nccn2c1)n1nnc2ncc(-c3cnn(C)c3)nc21 [Savolitinib] + Cc1c2c(nn1C)CSCc1cc(n(C)n1)CSc1cc(c3ccccc3c1)OCCCc1c(C(=O)O)n(C)c3c-2c(Cl)ccc13 [AZD5991] (first compound max 1 µM, 7x7, partner max 1 µM)	0.137	0.138	0.238	0.218
Cc1cc2ncnn2cc1Nc1ncc2c(n1)n(C1CCOCC1)c(=O)n2C [AZD7648] + C[C@@H]1COCCN1C2=NC(=NC(=C2)C3(CC3)[S@](=N)(=O)C)C4=C5C=CNC5=NC=C4 [AZD6738] (first compound max 10 µM, 7x7, partner max 10 µM)	0.232	0.737	0.849	0.73
COc1cc2ncnc(Nc3ccc(F)c(Cl)c3)c2cc1OCCCN1CCOCC1 [Gefitinib] + CC(C)n1c(=O)n(C)c2cnc3cc(F)c(-c4ccc(OCCCN5CCCCC5)nc4)cc3c21 [AZD1390] (first compound max 10 µM, 7x7, partner max 0.3 µM)	0.082	0.0866	0.238	0.0868
COc1cc2c(cc1OCCCCCOc1cc3c(cc1OC)C(=O)N1C=C(C)C[C@H]1C=N3)N=C[C@@H]1CC(C)=CN1C2=O [SG3199] + O=C(c1cc(Cc2n[nH]c(=O)c3ccccc23)ccc1F)N1CCN(C(=O)C2CC2)CC1 [Olaparib] (first compound max 0.001 µM, 7x7, partner max 10 µM)	0.0347	0.126	0.464	0.151
